Tested on: reconstructed human skin produced according to Example 1
Assay: Evaluation of skin barrier function of reconstructed human skin with liquid surfactant (MTT, OECD Test Guideline 439)
Assay type: cell-based
Method: In order to confirm the skin barrier function of the reconstructed human skin produced according to the present invention, the skin barrier function was evaluated using the reconstructed human skin produced in the culture vessel having the inner wall coated with dopamine in Example 1. The skin barrier function was evaluated in a manner in which cell viability relative to an untreated control depending on the treatment time with 1% Triton X-100 was measured, and ET50 (Effective Time 50%), which is the time taken to reach the cell viability of 50%, was determined, according to the barrier evaluation method presented as a performance standard in OECD Test Guideline 439. […] The formazan dye thus formed was dissolved in 2 ml of 2-propanol, 200 μl thereof was placed in each of two wells of a 96-well plate, and optical density at a wavelength of 570 nm was measured using a plate reader, and each optical density of treated group was compared to those in untreated control, thereby calculating relative cell viability, and ET50 (Effective Time 50), which is the time taken to reach the cell viability of 50%, was determined.

Triton X-100
relative cell viability (1% Triton X-100 for 2, 5, 8 and 20 hours, MTT relative to untreated control): decreased depending on the treatment time | ET50 (Effective Time 50), time taken to reach the cell viability of 50% (200 μl of 1% Triton X-100 solution on upper surface, MTT, optical density at 570 nm relative to untreated control): about 4.5 hours

Reference: patent US20230095689A1, “METHOD OF CULTURING RECONSTRUCTED HUMAN SKIN” (Korea University Research and Business Foundation, priority 2021, published 2023)
